# Test results: EP1433485B1, “Alpha-MSH derived peptides for treating uro-genital conditions” (MSH Pharma, Inc., priority 1999, dated 2009)
# Bridge positions count the residues as written; N and C are the ends. Peptide text beside a SMILES is read from it. I, II: the chains in the order shown.
# What was measured:
# [1] = rabbit, in vivo; cited from earlier work
# C. albicans [2] = conditions: for ability of C albicans to form colony: Figure 3, 10^-12 to 10^-4 M, p<0.01 vs. control; for C. albicans viability: Figure 4, procedures of Example II
# Method: (§1) Clinical isolates of C. albicans were also obtained from the collection of the Department of Microbiology, Ospedale Maggiore di Milano. Cultures of C. albicans were maintained on Sabouraud's agar slants and periodically transferred to Sabouraud's agar plates and incubated for 48 hours at 28°C. To prepare stationary growth-phase yeast, a colony was taken from the agar plate, transferred into 30 ml of Sabouraud-dextrose broth, and incubated for 72 hours at 32°C. Cells were centrifuged at 1000xg for ten minutes, and the pellet was washed twice with distilled water. Cells were counted and suspended in Hank's balanced salt solution ("HBSS") to the desired concentration.
# (§2) Cells were then washed in cold distilled water and diluted with HBSS to a concentration of 100 organisms/ml. One-milliliter aliquots were then dispensed on blood agar plates and incubated for 48 hours at 37°C. The organism's viability was estimated from the number of colonies formed.
# (§3) The reactions were stopped after three minutes by the addition of ice cold ethanol. cAMP levels were measured in duplicates using a commercial enzyme immunoassay kit (Amersham, United Kingdom) after extraction-via the liquid-phase method according to the manufacturer's instructions. […] The effects of forskolin and ddAdo on the ability of C. albicans to form colonies were determined according to the procedures described in Example II.
# S. aureus (ATCC 29213) = assay: S. aureus viability estimated from colonies formed; assay type: cell-based, Staphylococcus aureus; conditions: Figure 1; two hours at 37°C; significant with peptide concentrations of 10^-12 to 10^-4 M
# Method: (§4) Cultures of S. aureus (ATCC 29213) were obtained from the collection of the Department of Microbiology, Ospedale Maggiore di Milano. […] Cells were then washed in cold distilled water and diluted with HBSS to a concentration of 100 organisms/ml. One-milliliter aliquots were dispensed on blood agar plates and incubated for 24 hours at 37°C. Viability of the microorganisms was estimated from the colonies formed. In another set of experiments, 500 units of urokinase, a S. aureus growth enhancer, were also incubated with the bacteria (10^5/100ml) for four hours at 37°C in a shaking water bath together with the peptides.
# C. albicans [3] = assay: C. albicans viability estimated from colonies formed; assay type: cell-based, Candida albicans; conditions: Figure 9; ddAdo 25, 50 and 100 x 10^-5 M for two hours, then peptide two additional hours
# Method: as §1, §2, §3
# C. albicans [4] = assay: C. albicans germ tube formation induced by horse serum; assay type: cell-based, Candida albicans; conditions: peptide 10^-6 M, 60 minutes at 37°C after horse serum induction
# Method: C. albicans from stationary phase cultures were washed twice with distilled water and suspended in HBSS to a final concentration of 2 x 10^6/ml. Hyphal growth was induced by addition of 10% inactivated horse serum (GIBCO/ BRL, Paisley, Great Britain) to yeast incubated for 45 minutes at 37°C with continuous shaking. […] The percentage of filamentous cells was evaluated under a light microscope with the aid of a hemocytometer. Experiments were run in triplicates and at least 200 cells were scored. Photomicrographs were taken with a MC100 camera attached to an Axioskop Zeiss microscope.
# C. albicans [5] = assay: cAMP content of permeabilized C. albicans (enzyme immunoassay); assay type: cell-based, Candida albicans; conditions: Figure 7; 10^-6 M, three minutes; same order of magnitude as equimolar forskolin
# Method: ID. NO. 4), (11-13) (SEQ. ID. NO. 1), or forskolin, an agent known to increase intracellular cAMP. The reactions were stopped after three minutes by the addition of ice cold ethanol. cAMP levels were measured in duplicates using a commercial enzyme immunoassay kit (Amersham, United Kingdom) after extraction-via the liquid-phase method according to the manufacturer's instructions.
# C. albicans [6] = assay: killing of opsonized C. albicans by human neutrophils; assay type: cell-based, Candida albicans; conditions: Figure 6; 10^-12 to 10^-4 M; p<0.01
# Method: Venous blood (20 ml) from healthy volunteers was anticoagulated with heparin. Neutrophils were then isolated using dextran sedimentation and centrifugation with Ficoll-Hypaque (Sigma Chemical Co., St. Louis, Missouri, USA). Erythrocytes were lysed via hypotonic shock with the resulting neutrophils representing at least 97% of the cell suspension. Cell viability; estimated by trypan blue exclusion, was greater than 98%. Neutrophils were resuspended in HBSS for the experiments. […] ID. NO. 4)or α-MSH (11-13) (SEQ. ID. […] After incubation, the culture tubes were placed on ice to stop growth, and extracellular organisms were washed twice with centrifugation at 1000-x g at 4°C. A 2.5% sodium deoxycholate solution was added to the suspension, and the tubes were shaken for five minutes. Cold distilled water was then added to obtain a suspension of 10^6 cells/ml. Two 1/100 serial dilution in HBSS were made to obtain a final suspension of 100 cells/ml. One-milliliter aliquots were then dispensed on blood agar plates and incubated for 48 hours at 37°C. Colony forming units were counted at the end of the incubation period with experiments running in triplicates and repeated using blood from five different donors.
# NF-κB = NF-κB binding activity in nuclear extracts of U1 cells (gel shift); assay type: cell-based, human
# Method: For the determination of specific bands, nuclear extracts were first incubated with 100 fold excess unlabeled probe for five minutes, before incubation with a labeled probe. […] The gels were dried and autoradiographed.
# S. aureus = assay: urokinase induced growth of S. aureus; assay type: cell-based, Staphylococcus aureus; conditions: Figure 2; peptide 10^-6M; 500 units of urokinase, four hours at 37°C
# Method: as §4
# HIV-1 = conditions: Figure 11; 10^-5M; induced by IL-6, IL-10, PMA and in crowding condition
# Source text: Chronically HIV-1 infected promonocytic U1 cell line is an in vitro model of latent HIV infection in monocytes. These cells carry two integrated proviral copies of HIV, and constitutive expression of HIV is very low. Viral replication, however, as measured by RNA transcription , p24 antigen, or reverse transcriptase release, can be activated with different stimuli such as TNF-α, IL-6, IL-10, PMA or crowding of cells.
# Crowding was achieved by seeding U 1 cells at a density of 2x10^5/ml and maintaining them in culture at 37°C in 5% CO2 without changing media for seven days. Cultures activated with cytokines or PMA were maintained for only 48 hours. Supernatants were then removed by centrifugation and assayed for p24 antigen using commercially available ELISA kits from Cellular Products, Inc. in Buffalo, NY, USA. Reverse transcriptase releases were also measured using a commercially available kit, ELISA Retrosys RT assay from Innovagen, Lund, Sweden.
# HIV-1 RNA = assay: Northern Blot analysis of HIV-1 RNA in PMA stimulated U1 cells; assay type: cell-based; conditions: Figure 12
compound,measurement,setting,value
8-13 sequence: α-MSH 8-13 sequence (RWGKPV),antipyretic potency relative to the 11-13 sequence,[1],greater than that of the 11-13 sequence
9-13 sequence: α-MSH 9-13 sequence (WGKPV),antipyretic potency relative to the 11-13 sequence,[1],almost devoid of activity
10-13 sequence: α-MSH(11-13) with addition of glycine to form the 10-13 sequence (GKPV),antipyretic potency relative to the 11-13 sequence,[1],slightly decreased potency
CC(=O)N[C@@H](CSSC[C@H](NC(C)=O)C(=O)N[C@@H](CCCCN)C(=O)N1CCC[C@H]1C(=O)N[C@H](C(N)=O)C(C)C)C(=O)N[C@@H](CCCCN)C(=O)N1CCC[C@H]1C(=O)N[C@H](C(N)=O)C(C)C [KPV dimer] (I: Ac-CKPV-NH2 / II: Ac-CKPV-NH2; disulfide I:1-II:1),ability of C albicans to form colony,C. albicans [2],greatly reduced the ability of C albicans to form colony
same,S. aureus colony formation,S. aureus (ATCC 29213),inhibited S. aureus colony formation
"C[C@H]1O[C@@H](n2cnc3c(N)ncnc32)C[C@@H]1O [ddAdo, dideoxyadenosine]",effect of ddAdo on the growth inhibition of C. albicans by α-MSH (1-13) and (11-13),C. albicans [3],reverse the effect
"CSCC[C@H](NC(C)=O)C(=O)N[C@@H](CCC(=O)O)C(=O)N[C@@H](Cc1c[nH]cn1)C(=O)N[C@@H](Cc1ccccc1)C(=O)N[C@@H](CCCNC(=N)N)C(=O)N[C@@H](Cc1c[nH]c2ccccc12)C(=O)NCC(N)=O [α-MSH (4-10), MEHFRWG]",inhibition of colony forming units (CFU),C. albicans [2]; 48 h,approximately 50%
CC(=O)N[C@@H](Cc1c[nH]cn1)C(=O)N[C@@H](Cc1ccccc1)C(=O)N[C@@H](CCCNC(=N)N)C(=O)N[C@@H](Cc1c[nH]c2ccccc12)C(=O)NCC(=O)N[C@@H](CCCCN)C(=O)N1CCC[C@H]1C(=O)N[C@H](C(N)=O)C(C)C [α-MSH (6-13)] (Ac-HFRWGKPV-NH2),reduction in the number of filamentous cells,C. albicans [4],approximately 50%
"CC(=O)N[C@@H](CCCCN)C(=O)N1CCC[C@H]1C(=O)N[C@H](C(N)=O)C(C)C [α-MSH (11-13), KPV] (Ac-Lys-Pro-Val-NH2)",cAMP content in the C. albicans,C. albicans [5],enhanced cAMP content
same,neutrophil killing of C. albicans,C. albicans [6],enhanced neutrophil killing of C. albicans
same,reduction in the number of filamentous cells,C. albicans [4],54-58%
same,NF-κB activation,"NF-κB; Figure 14, TNF-α (20ng/ml) stimulated U1 cells, four hours, peptide 10^-5 M",significantly reduced NF-κB activation
same,NF-κB activation,NF-κB; resting cells,did not alter NF-κB activation
same,ability of C albicans to form colony,C. albicans [2],greatly reduced the ability of C albicans to form colony
same,growth of C. albicans,"C. albicans [2]; Figure 8, relative to control, p<0.01",significantly inhibited the growth of C. albicans
same,growth enhancing effect of urokinase on S. aureus,S. aureus,significantly countered the growth enhancing effect of urokinase
same,reverse transcriptase release from U1 cells,HIV-1,inhibited
same,transcription of both spliced and unspliced HIV-1 RNA,HIV-1 RNA,inhibited
same,S. aureus colony formation,S. aureus (ATCC 29213),inhibited S. aureus colony formation
"ACTH (1-39): adrenocorticotropic hormone (1-39), prepared by solid-phase peptide synthesis (SYSMEHFRWGKPVGKKRRPVKVYPNGAEDESAEAFPLEF; Corticotropin; UniProt P01189 138-176, looked up) [reference compound]",C. albicans viability,C. albicans [2],did not reduce C. albicans viability
ACTH (18-39): ACTH fragment (18-39) (CLIP) [reference compound],C. albicans viability,C. albicans [2],did not reduce C. albicans viability
"[Nle^4,D-Phe^7]- α-MSH",potency in reducing fever relative to the parent peptide,[1],approximately ten times more potent
